Source: patent publication US20210353564A1, “TREATMENTS FOR ZIKA VIRUS INFECTION” (Saint Louis University, priority 2018, published 2021)
Where a name gives a salt, the structure may show the parent alone.

Assays:
HCV = conditions: cited from earlier work
Zika virus = assay: Focus Forming Assay, Vero cells drugged at T-1, T0, T1, T8, T12 relative to addition of virus; assay type: cell-based; conditions: for effect on Zika virus replication (focus count): remaining virus after 39 hours; for change of EC50 with time of compound addition: addition T-1 to T12 relative to virus
Description: FIGS. 3-14. Focus Forming Assay. Data represent Vero cells drugged with SERM compounds an hour before addition of virus (T-1), upon addition of virus (T0), one hour after addition of virus (T1), eight hours after addition of virus (T8), and twelve hours after addition of virus. Each compound was screened as triplicate measurements and performed in duplicate. The data is shown as focus count (normalized to the control wells) which represents the amount of remaining virus after 39 hours as a function of log concentration.

[1] = average 4-year follow-up; difference not statistically significant; cited from earlier work
ERa = molecular target: T1, ERa (Homo sapiens, UniProt P03372); conditions: cited from earlier work
T1 sequence (P03372 1-595): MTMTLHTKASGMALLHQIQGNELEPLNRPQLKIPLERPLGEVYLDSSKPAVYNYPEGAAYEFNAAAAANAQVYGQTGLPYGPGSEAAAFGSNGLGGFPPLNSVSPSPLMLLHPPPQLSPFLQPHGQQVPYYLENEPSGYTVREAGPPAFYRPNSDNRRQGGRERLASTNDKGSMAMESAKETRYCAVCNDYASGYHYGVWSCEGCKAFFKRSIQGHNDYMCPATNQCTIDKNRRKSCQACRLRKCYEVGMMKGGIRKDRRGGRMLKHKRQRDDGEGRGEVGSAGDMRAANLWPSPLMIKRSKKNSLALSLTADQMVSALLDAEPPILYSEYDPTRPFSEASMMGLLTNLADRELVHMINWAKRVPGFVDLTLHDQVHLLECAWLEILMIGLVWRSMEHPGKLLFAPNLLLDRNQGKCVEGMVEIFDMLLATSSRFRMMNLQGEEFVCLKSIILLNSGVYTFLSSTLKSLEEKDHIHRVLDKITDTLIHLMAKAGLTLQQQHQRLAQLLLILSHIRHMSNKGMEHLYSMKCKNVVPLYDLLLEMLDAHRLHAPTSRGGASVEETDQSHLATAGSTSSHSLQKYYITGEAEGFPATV

[2] = tested on: ERa-mediated gene transcription; conditions: cited from earlier work
[3] = tested on: Ca2+-mediated cytotoxicity and apoptosis; conditions: cited from earlier work
ZIKV strain PRVABC59 = assay: focus reduction test of ZIKV on Vero cells; conditions: focus reduction test (FIG. 1B)
Description: Average+/−StdDev from three independent experiments done in duplicate.

[4] = after two years, only tamoxifen; cited from earlier work
calmodulin-activated PDE = conditions: cited from earlier work

In the case of `C[C@]12CC[C@@H]3c4ccc(O)cc4C[C@@H](CCCCCCCCC[S+]([O-])CCCC(F)(F)C(F)(F)F)[C@H]3[C@@H]1CC[C@@H]2O` (stereo partly drawn) [ICI182780], the “effect on HCV genome replication” value (HCV) is given as “able to inhibit HCV genome replication” and the “toxicity in the HCV replication study” value (HCV) is given as “without any apparent toxicity”.

For `C[C@H]1CCCC(=O)CCCCCc2cc(O)cc(O)c2C(=O)O1` [Zearalanone], the “effect on Zika virus replication (focus count)” value (shortened to “effect on Zika virus replication”) (Zika virus) was “no effect”.

For `O=C(c1ccc(OCCN2CCCCC2)cc1)c1c(-c2ccc(O)cc2)sc2cc(O)ccc12` [raloxifene], the “fewer blood clots than in women taking tamoxifen” value [1] is listed as 29% and the “fewer uterine cancers than in women taking tamoxifen” value [1] is listed as 36%.

With `COc1cc2c(cc1OC)CN(CCc1ccc(NC(=O)c3cc(OC)c(OC)cc3NC(=O)c3cnc4ccccc4c3)cc1)CC2` [Tariquidar] the “change of EC50 with time of compound addition” value (“change of EC50” for short) (Zika virus) was “EC50 does not change substantially from T-1 to T12” and the “effect on Zika virus replication” value (Zika virus) was “prevents viral replication”.

In the case of `O=c1c(-c2ccc(O)cc2)coc2cc(O)cc(O)c12` [Genistein], the “effect on Zika virus replication” value (Zika virus) is reported as “no effect”.

In the case of Methylpiperidinopyrazole [MPP], the “selectivity for ERa over ERβ” value (ERa) is listed as 200 fold and the “selectivity for blocking ERa-mediated gene transcription relative to that of ERβ” value [2] is listed as 1000 fold.

For VAITVLVK [CALP-1], the “effect on Zika virus replication” value (Zika virus) is listed as “increase viral growth during some of the assays” and the IC50 [3] is listed as 52 µM.

With `CC/C(=C(\c1ccccc1)c1ccc(OCCN(C)C)cc1)c1ccccc1` [Tamoxifen citrate] the “change of EC50” value (Zika virus) was “EC50 increases from T1 to T8” and the “effect on Zika virus replication” value (Zika virus) was “prevents viral replication”.

In the case of `CC/C(=C(\c1ccccc1)c1ccc(OCCN(C)C)cc1)c1ccccc1` [TAM, Tamoxifen], the “antiviral activity against ZIKV grown in Vero cells” value (ZIKV strain PRVABC59) is listed as “antiviral activity”, the “effect on HCV genome replication” value (HCV) is listed as “able to inhibit HCV genome replication” and the “toxicity in the HCV replication study” value (HCV) is listed as “without any apparent toxicity”. The “women with a recurrence” value [4] was 7.5%.

In the case of `CCCCCCCCCCCCCC(=O)O[C@@H]1[C@@H](C)[C@@]2(O)[C@@H](C=C(CO)C[C@]3(O)C(=O)C(C)=C[C@@H]23)[C@@H]2C(C)(C)[C@]12OC(C)=O` [PMA, phorbol-12-myristate-13-acetate], the “change of EC50” value (Zika virus) is reported as “EC50 increases from T8 to T12” and the “effect on Zika virus replication” value (Zika virus) is reported as “diminishes viral replication”.

With `Oc1ccc([C@H]2COc3cc(O)ccc3C2)cc1` [(S)-Equol, (S)-equol] the “change of EC50” value (Zika virus) was “EC50 increases from T8 to T12” and the “effect on Zika virus replication” value (Zika virus) was “diminishes viral replication”.

For `Cl.NCCCCCCCCCCNS(=O)(=O)c1cccc2c(Cl)cccc12` [A-7], the IC50 (calmodulin-activated PDE) is listed as 3 µM, the “change of EC50” value (Zika virus) is listed as “EC50 increases from T1 to T8” and the “effect on Zika virus replication” value (Zika virus) is listed as “prevents viral replication”. The “effect on Zika virus replication” value (Zika virus; listed as A-7 Hydrochloride) was “impedes viral replication”.

With `O=c1c(-c2ccc(O)cc2)coc2cc(O)ccc12` [Daidzein] the “effect on Zika virus replication” value (Zika virus) was “no effect”.
